Each structure is given as a SMILES string.

The subject of the assay is HT-29 cells. Description: HT29 Cells 0FBS Assay In Vitro (TNF-α/SMAC mimetic/zVAD-FMK induced necroptosis, CellTiter-Glo cell viability). The assay is classed as cell-based. The conditions noted are these: Homo sapiens; HT-29 cells, FBS free medium, TNF-α (10 ng/ml), SMAC mimetic (6 uM), zVAD-FMK (10 μM), 20 hours; geometric mean EC50; read-out: Cell activity (EC50) of Compounds 1-116. From the text: Protocol for HT29 Cells 0FBS Assay In Vitro
• Cell line: HT-29 (ATCC® HTB-38™) • Culture medium: McCOY's 5 A, Gibco, Cat No. 16600-082 • FBS, Gibco, Cat No. 10099-141C • Trypsin: Gibco, Cat No. 25200-056 • DMSO: Sigma, Cat No. 67-68-5, 1 L • Assay plate: Corning #3903 • Compound dilution plate: Corning #3357 • Inducers: TNFα, GenScript, Cat No. ZO1001-50, • SmacM, Cat. No., HY-15989, MedChemExpress (MCE) • Z_VAD FMK, TargetMol, T6013 • Cell Titer-Glo® Luminescent Cell Viability Assay Kit: Promega, Cat No. G7573 • EnVision: PerkinElmer, 2105-0010 2. Cell Seeding of HT-29 Cells • 1) HT-29 cells were checked every day to make sure they are healthy and growing as expected. They were split sub-culturing when were approximately 80% confluent. • 2) First pre-warm the culture medium of McCOY's 5 A medium (Gibco, Cat No. 16600-082) with 10% FBS (Gibco, Cat No. 10099-141C) in 37° C. water bath for at least 30 min. • 3) Growing cells to desired level of confluency 80% in a T75 flask, aspirate the medium, and wash with warm PBS two times. • 4) Add 2-3 ml fresh warm trypsin (Gibco, Cat No. 25200-056) solution. Transfer the flask to a 37° C. incubator. • 5) After 5 minutes, tap the side of the flask, and examine the flask under a microscope for lifting. If necessary, return the cells to the incubator for an additional 5-10 minutes, with occasional tapping, until lifting is complete. • 6) Quickly neutralize the trypsin reaction by adding 6-9 ml cell culture medium, then transfer the cells to sterile 15 ml conical tubes. Pellet the cells by centrifugation at 300×g for 7 minutes, then decant the supernatant. • 7) Resuspend the cells in fresh cell culture medium. Do cell counting with hemocytometer. • 8) Seed 100 μl of 5,000 cells into each well of the sterile 96-well cell culture plate (Corning 3903) and culture overnight at 37° C. with 5% C02. 3. Compounds Titration and Treatment of HT-29 Cells • 1) All batches of compounds (CPDs) (e.g., compound 1-281) were dissolved in DMSO (Dimethyl sulfoxide) as 20 mM stock solution. • 2) Take 3 ul 20 mM stock solution of CPDs to 27 ul DMSO and mix well, continue the titration ratio of 1:3 (20 ul CPDs+40 ul DMSO), e.g., to give solutions of CPDS at 6.6 mM, 2.2 mM, etc., till the 10 points end. • 3) Take out assay plates with HT-29 cells from incubator, remove all culture medium then wash 1 time with 1×PBS, and change fresh McCOY's 5 A medium of FBS free with a cocktail of TNF-α (10 ng/ml), the SMAC mimetic (6 uM) and zVAD-FMK (10 μM) to stimulate the HT-29 cells to increase pRIPK1 levels and necroptosis. • 4) Add 0.5 μL of the diluted compound to the corresponding 96-well assay plates. • 5) Incubate the assay plates for 20 hours at 37° C. with 5% C02. 4. Performing Cell Viability Detection of HT-29 Cells after Treated with Compounds • 1) The CellTiter-Glo® Luminescent Cell Viability Assay was employed to detect the ATP levels of viable HT-29 cells. • 2) Equilibrate the CellTiter-Glo® buffer and the lyophilized substrate to room temperature prior to use. • 3) Resuspend the CellTiter-Glo® substrate with CellTiter-Glo® buffer, mix by gently vortexing to obtain a homogeneous solution. • 4) Pipette 20 μl the enzyme/substrate mixture by multi-channel pipette into the 96-well assay plates from step 5) under the Compounds titration and treatment stage. • 5) Place the plates on an orbital shaker and mix the contents for 3 minutes to induce cell lysis. • 6) Then allow the plates to incubate at room temperature for 10 minutes to stabilize luminescent signal. • 7) Read and record luminescence signal with EnVision. • 8) The geometric mean EC50 of the compounds were calculated from points response dose with duplicate. In Tables 2 and 4, activity is provided as follows: +++=0.1 nM≤EC50<100 nM; ++=100 nM≤EC50<1000 nM; +=1000 nM≤EC50<10000 nM.
As for `Cc1nc(C)c(-c2ncc(F)c(OC3CN(C(=O)N4N=CC[C@H]4c4cc(F)cc(F)c4)C3)n2)s1` [compound 19, (S)-(5-(3,5-difluorophenyl)-4,5-dihydro-1H-pyrazol-1-yl)(3-((2-(2,4-dimethylthiazol-5-yl)-5-fluoropyrimidin-4-yl)oxy)azetidin-1-yl)methanone], the EC50 fell in the range of 0.0001 to 0.1 µM.
In the case of `Cc1noc(C)c1-c1ncc(F)c(OC2CN(C(=O)N3N=CC[C@H]3c3cc(F)cc(F)c3)C2)n1` [compound 20, (S)-(5-(3,5-difluorophenyl)-4,5-dihydro-1H-pyrazol-1-yl)(3-((2-(3,5-dimethylisoxazol-4-yl)-5-fluoropyrimidin-4-yl)oxy)azetidin-1-yl)methanone] it was 0.0001 to 0.1 µM.
With `Cc1oncc1-c1ncc(F)c(OC2CN(C(=O)N3N=CC[C@H]3c3cc(F)cc(F)c3)C2)n1` [compound 21, (S)-(5-(3,5-difluorophenyl)-4,5-dihydro-1H-pyrazol-1-yl)(3-((5-fluoro-2-(5-methylisoxazol-4-yl)pyrimidin-4-yl)oxy)azetidin-1-yl)methanone], the EC50 fell in the range of 0.0001 to 0.1 µM.
Consider `Cc1nocc1-c1ncc(F)c(OC2CN(C(=O)N3N=CC[C@H]3c3cc(F)cc(F)c3)C2)n1` [compound 22, (S)-(5-(3,5-difluorophenyl)-4,5-dihydro-1H-pyrazol-1-yl)(3-((5-fluoro-2-(3-methylisoxazol-4-yl)pyrimidin-4-yl)oxy)azetidin-1-yl)methanone], for which the EC50 fell in the range of 0.0001 to 0.1 µM.
Turning to `Cc1csnc1-c1ccc(F)c(OC2CN(C(=O)N3N=CC[C@H]3c3cc(F)cc(F)c3)C2)n1` [compound 23, (S)-(5-(3,5-difluorophenyl)-4,5-dihydro-1H-pyrazol-1-yl)(3-((3-fluoro-6-(4-methylisothiazol-3-yl)pyridin-2-yl)oxy)azetidin-1-yl)methanone], the EC50 is 0.0001 to 0.1 µM.
On to `Cc1nnc(-c2ccc(F)c(OC3CN(C(=O)N4N=CC[C@H]4c4cc(F)cc(F)c4)C3)n2)s1` [compound 24, (S)-(5-(3,5-difluorophenyl)-4,5-dihydro-1H-pyrazol-1-yl)(3-((3-fluoro-6-(5-methyl-1,3,4-thiadiazol-2-yl)pyridin-2-yl)oxy)azetidin-1-yl)methanone], for which the EC50 lay within 0.0001 to 0.1 µM.
For `Cc1ncc(-c2ncc(F)c(OC3CN(C(=O)N4N=CC[C@H]4c4cc(F)cc(F)c4)C3)n2)s1` [compound 25, (S)-(5-(3,5-difluorophenyl)-4,5-dihydro-1H-pyrazol-1-yl)(3-((5-fluoro-2-(2-methylthiazol-5-yl)pyrimidin-4-yl)oxy)azetidin-1-yl)methanone], the concentration giving a half-maximal response (EC50) lay within 0.0001 to 0.1 µM.
As for `Cc1ncc(-c2cc(OC3CN(C(=O)N4N=CC[C@H]4c4cc(F)cc(F)c4)C3)c(F)cn2)s1` [compound 26, (S)-(5-(3,5-difluorophenyl)-4,5-dihydro-1H-pyrazol-1-yl)(3-((5-fluoro-2-(2-methylthiazol-5-yl)pyridin-4-yl)oxy)azetidin-1-yl)methanone], the EC50 was in the range of 0.0001 to 0.1 µM.
Turning to `Cc1nnc(-c2ccc(F)c(OC3CN(C(=O)N4N=CCC4c4cc(F)cc(F)c4)C3)n2)o1` (stereo not shown) [compound 27, (5-(3,5-difluorophenyl)-4,5-dihydro-1H-pyrazol-1-yl)(3-((3-fluoro-6-(5-methyl-1,3,4-oxadiazol-2-yl)pyridin-2-yl)oxy)azetidin-1-yl)methanone], the EC50 was in the range of 0.1 to 1 µM.
With `Cn1ncnc1-c1ccc(F)c(OC2CN(C(=O)N3N=CC[C@H]3c3cc(F)cc(F)c3)C2)n1` [compound 28, (S)-(5-(3,5-difluorophenyl)-4,5-dihydro-1H-pyrazol-1-yl)(3-((3-fluoro-6-(1-methyl-1H-1,2,4-triazol-5-yl)pyridin-2-yl)oxy)azetidin-1-yl)methanone], the EC50 lay in the range of 0.0001 to 0.1 µM.
As to `Cn1ncnc1-c1cc(OC2CN(C(=O)N3N=CC[C@H]3c3cc(F)cc(F)c3)C2)c(F)cn1` [compound 29, (S)-(5-(3,5-difluorophenyl)-4,5-dihydro-1H-pyrazol-1-yl)(3-((5-fluoro-2-(1-methyl-1H-1,2,4-triazol-5-yl)pyridin-4-yl)oxy)azetidin-1-yl)methanone], the EC50 was in the range of 0.0001 to 0.1 µM.
The value for `Cn1ncnc1-c1ncc(F)c(OC2CN(C(=O)N3N=CC[C@H]3c3cc(F)cc(F)c3)C2)n1` [compound 30, (S)-(5-(3,5-difluorophenyl)-4,5-dihydro-1H-pyrazol-1-yl)(3-((5-fluoro-2-(1-methyl-1H-1,2,4-triazol-5-yl)pyrimidin-4-yl)oxy)azetidin-1-yl)methanone] was 0.0001 to 0.1 µM; that for `Cn1cc(-c2cc(OC3CN(C(=O)N4N=CC[C@H]4c4cc(F)cc(F)c4)C3)c(F)cn2)nn1` [compound 32, (S)-(5-(3,5-difluorophenyl)-4,5-dihydro-1H-pyrazol-1-yl)(3-((5-fluoro-2-(1-methyl-1H-1,2,3-triazol-4-yl)pyridin-4-yl)oxy)azetidin-1-yl)methanone] was 0.0001 to 0.1 µM; that for `Cn1ncc(-c2cc(OC3CN(C(=O)N4N=CC[C@H]4c4cc(F)cc(F)c4)C3)c(F)cn2)n1` [compound 33, (S)-(5-(3,5-difluorophenyl)-4,5-dihydro-1H-pyrazol-1-yl)(3-((5-fluoro-2-(2-methyl-2H-1,2,3-triazol-4-yl)pyridin-4-yl)oxy)azetidin-1-yl)methanone] was 0.0001 to 0.1 µM.
Regarding `Cn1nncc1-c1cc(OC2CN(C(=O)N3N=CC[C@H]3c3cc(F)cc(F)c3)C2)c(F)cn1` [compound 34, (S)-(5-(3,5-difluorophenyl)-4,5-dihydro-1H-pyrazol-1-yl)(3-((5-fluoro-2-(1-methyl-1H-1,2,3-triazol-5-yl)pyridin-4-yl)oxy)azetidin-1-yl)methanone], the concentration for a half-maximal effect (EC50) is 0.0001 to 0.1 µM.
As to `Cc1cc(-c2ncc(F)c(OC3CN(C(=O)N4N=CC[C@H]4c4cc(F)cc(F)c4)C3)n2)n(C)n1` [compound 35, (S)-(5-(3,5-difluorophenyl)-4,5-dihydro-1H-pyrazol-1-yl)(3-((2-(1,3-dimethyl-1H-pyrazol-5-yl)-5-fluoropyrimidin-4-yl)oxy)azetidin-1-yl)methanone], the concentration giving a half-maximal response (EC50) was 0.0001 to 0.1 µM.
Regarding `Cc1cc(-c2cc(OC3CN(C(=O)N4N=CC[C@H]4c4cc(F)cc(F)c4)C3)c(F)cn2)n(C)n1` [compound 36, (S)-(5-(3,5-difluorophenyl)-4,5-dihydro-1H-pyrazol-1-yl)(3-((2-(1,3-dimethyl-1H-pyrazol-5-yl)-5-fluoropyridin-4-yl)oxy)azetidin-1-yl)methanone], the EC50 fell in the range of 0.0001 to 0.1 µM.
Take `Cc1nn(C)cc1-c1ncc(F)c(OC2CN(C(=O)N3N=CC[C@H]3c3cc(F)cc(F)c3)C2)n1` [compound 37, (S)-(5-(3,5-difluorophenyl)-4,5-dihydro-1H-pyrazol-1-yl)(3-((2-(1,3-dimethyl-1H-pyrazol-4-yl)-5-fluoropyrimidin-4-yl)oxy)azetidin-1-yl)methanone]: the EC50 was 0.0001 to 0.1 µM.
Consider `Cc1nn(C)cc1-c1cc(OC2CN(C(=O)N3N=CC[C@H]3c3cc(F)cc(F)c3)C2)c(F)cn1` [compound 38, (S)-(5-(3,5-difluorophenyl)-4,5-dihydro-1H-pyrazol-1-yl)(3-((2-(1,3-dimethyl-1H-pyrazol-4-yl)-5-fluoropyridin-4-yl)oxy)azetidin-1-yl)methanone], for which the EC50 is 0.0001 to 0.1 µM.

(Values after patent US12655125B2 (SIRONAX LTD., priority 2020, dated 2026).)
